# Results: patent US10517889B2, “Modulators of SMAD7 expression” (Ionis Pharmaceuticals, Inc., priority 2017, dated 2019)
# Strand notation (5' to 3'): a small letter for the sugar, then the base; units joined by * are phosphorothioate-linked, units joined directly phosphodiester-linked; [ ] holds rarer units or linkages, { } end groups; capitals alone tell only the bases. e = 2'-O-(2-methoxyethyl) (MOE); [5mC] = 5-methylcytosine; d = 2'-deoxy (DNA)
# System: human SMAD7 mRNA
# Assay: Antisense inhibition of human SMAD7 mRNA expression in Hep3B cells by 5-10-5 MOE gapmers, single concentration, electroporation, RT-PCR (Example 1, Study 1 and 2)
# Type: cell-based
# Conditions: Study 2, electroporation with 15,000 nM antisense oligonucleotide, 5-10-5 MOE gapmers targeting SEQ ID NO: 1 and 2
# Method in brief: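 Readout is percent SMAD7 mRNA inhibition versus untreated cells, measured by qRT-PCR (RTS5062) and corrected for total RNA by RIBOGREEN. Oligonucleotide, 5,000 nM or 15,000 nM, was delivered by electroporation into Hep3B cells at 20,000 per well. RNA was collected about 24 h later.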
Substance,% inhibition of SMAD7 mRNA expression,% Inhibition
771654 (antisense eA*eA*eA*e[5mC]*eA*dT*dG*d[5mC]*dT*d[5mC]*dA*dT*dT*dG*dA*eG*e[5mC]*eT*eA*eA) [compound 771654],32%,
771655 (antisense eA*eG*eT*e[5mC]*eT*dA*dA*dA*d[5mC]*dA*dT*dG*d[5mC]*dT*d[5mC]*eA*eT*eT*eG*eA) [compound 771655],14%,
771660 (antisense eT*eT*e[5mC]*eT*e[5mC]*dT*dT*dG*dT*dT*d[5mC]*dA*dT*dT*dT*eA*eA*eA*e[5mC]*e[5mC]) [compound 771660],0%,
771662 (antisense eA*eT*eG*eA*eG*dA*dA*dT*dG*d[5mC]*dT*dT*d[5mC]*dT*d[5mC]*eT*eT*eG*eT*eT) [compound 771662],29%,
771668 (antisense e[5mC]*eT*e[5mC]*eT*e[5mC]*dA*dA*dA*dG*d[5mC]*dA*d[5mC]*dT*dA*d[5mC]*eA*eA*eT*eG*e[5mC]) [compound 771668],9%,
771676 (antisense eT*eG*eT*eT*eT*dA*dT*dA*d[5mC]*dA*d[5mC]*dA*dT*dT*dG*e[5mC]*eA*e[5mC]*eA*eA) [compound 771676],2%,
771678 (antisense eT*eT*eA*eT*eT*dT*dT*dT*d[5mC]*dT*dT*dG*dT*dT*dT*eA*eT*eA*e[5mC]*eA) [compound 771678],0%,
771679 (antisense eG*e[5mC]*eA*eT*e[5mC]*dT*dT*dT*dT*d[5mC]*dT*dT*dT*dA*dT*eT*eT*eT*eT*e[5mC]) [compound 771679],0%,
771684 (antisense eA*eT*eT*eT*eG*dG*d[5mC]*dA*dT*dT*dT*dG*dT*dT*dA*eT*eT*eT*eG*e[5mC]) [compound 771684],0%,
771686 (antisense eG*eT*eT*eT*eA*dT*d[5mC]*dT*dT*dT*dT*dT*dT*dA*dA*eT*eT*eT*eG*eG) [compound 771686],0%,
771687 (antisense e[5mC]*eT*eT*eG*eT*dG*dT*dT*dT*dA*dT*d[5mC]*dT*dT*dT*eT*eT*eT*eA*eA) [compound 771687],13%,
771692 (antisense e[5mC]*e[5mC]*e[5mC]*eA*eG*dG*dA*dG*dG*dG*dT*dA*dT*dG*d[5mC]*eA*e[5mC]*eA*e[5mC]*eT) [compound 771692],,18%
771694 (antisense e[5mC]*eT*e[5mC]*e[5mC]*e[5mC]*dA*dG*dG*dA*dG*dG*dG*dT*dA*dT*eG*e[5mC]*eA*e[5mC]*eA) [compound 771694],,0%
771695 (antisense eT*e[5mC]*eT*e[5mC]*e[5mC]*d[5mC]*dA*dG*dG*dA*dG*dG*dG*dT*dA*eT*eG*e[5mC]*eA*e[5mC]) [compound 771695],,22%
771700 (antisense eT*eA*eT*eG*e[5mC]*dA*d[5mC]*dA*d[5mC]*dT*d[5mC]*dT*d[5mC]*d[5mC]*d[5mC]*eA*eG*eG*eA*eG) [compound 771700],,9%
771702 (antisense eA*eG*eG*eG*eT*dA*dT*dG*d[5mC]*dA*d[5mC]*dA*d[5mC]*dT*d[5mC]*eT*e[5mC]*e[5mC]*e[5mC]*eA) [compound 771702],,24%
771703 (antisense eG*eG*eA*eG*eG*dG*dT*dA*dT*dG*d[5mC]*dA*d[5mC]*dA*d[5mC]*eT*e[5mC]*eT*e[5mC]*e[5mC]) [compound 771703],,31%
771707 (antisense eT*eT*eG*eT*eT*d[5mC]*d[5mC]*dT*d[5mC]*dT*dG*d[5mC]*dA*d[5mC]*d[5mC]*e[5mC]*eT*eG*eG*eG) [compound 771707],,42%

# Same assay, conditions: electroporation with 15,000 nM antisense oligonucleotide (Study 2), 5-10-5 MOE gapmers targeting SEQ ID NO: 1 and 2
Substance,% Inhibition of SMAD7 mRNA,% inhibition of SMAD7 mRNA expression
771656 (antisense eG*eT*eT*eA*eA*dA*dG*dT*d[5mC]*dT*dA*dA*dA*d[5mC]*dA*eT*eG*e[5mC]*eT*e[5mC]) [compound 771656],35%,0%
771657 (antisense e[5mC]*eT*eT*eA*eT*dG*dT*dT*dA*dA*dA*dG*dT*d[5mC]*dT*eA*eA*eA*e[5mC]*eA) [compound 771657],,6%
771658 (antisense eA*eA*eT*eA*eG*d[5mC]*dT*dT*dA*dT*dG*dT*dT*dA*dA*eA*eG*eT*e[5mC]*eT) [compound 771658],,33%
771664 (antisense eT*eA*eA*eA*eT*dT*dT*d[5mC]*d[5mC]*dA*dA*dT*dG*dA*dG*eA*eA*eT*eG*e[5mC]) [compound 771664],25%,5%
771665 (antisense eA*eA*eT*eG*e[5mC]*dT*dA*dA*dA*dT*dT*dT*d[5mC]*d[5mC]*dA*eA*eT*eG*eA*eG) [compound 771665],,24%
771666 (antisense eA*e[5mC]*eT*eA*e[5mC]*dA*dA*dT*dG*d[5mC]*dT*dA*dA*dA*dT*eT*eT*e[5mC]*e[5mC]*eA) [compound 771666],,39%
771672 (antisense eT*eT*eT*eT*eT*dT*d[5mC]*dA*dG*dG*dA*dG*dT*d[5mC]*d[5mC]*eT*eT*eT*e[5mC]*eT) [compound 771672],30%,2%
771673 (antisense eA*eG*eG*eT*eT*dT*dT*dT*dT*dT*dT*d[5mC]*dA*dG*dG*eA*eG*eT*e[5mC]*e[5mC]) [compound 771673],,44%
771674 (antisense eA*eT*eA*eA*eA*dT*d[5mC]*dT*d[5mC]*dA*dG*dG*dT*dT*dT*eT*eT*eT*eT*eT) [compound 771674],,0%
771680 (antisense eA*eT*eT*eT*eA*dT*dA*dT*dT*dA*dA*dA*dG*d[5mC]*dA*eA*eA*eG*eT*eG) [compound 771680],0%,0%
771681 (antisense eT*eT*eT*eG*e[5mC]*dA*dT*dT*dT*dA*dT*dA*dT*dT*dA*eA*eA*eG*e[5mC]*eA) [compound 771681],,0%
771682 (antisense eT*eG*eT*eT*eA*dT*dT*dT*dG*d[5mC]*dA*dT*dT*dT*dA*eT*eA*eT*eT*eA) [compound 771682],,18%
771688 (antisense e[5mC]*eG*eT*eT*eT*dA*dA*dT*dG*dG*dA*dA*d[5mC]*dA*dT*eA*eA*eA*e[5mC]*eT) [compound 771688],13%,0%
771689 (antisense eA*eG*eT*eG*eT*dA*d[5mC]*dA*dT*dT*dT*dT*dA*dA*dA*eA*eA*eT*e[5mC]*eG) [compound 771689],,30%
771696 (antisense e[5mC]*eT*e[5mC]*eT*e[5mC]*d[5mC]*d[5mC]*dA*dG*dG*dA*dG*dG*dG*dT*eA*eT*eG*e[5mC]*eA) [compound 771696],0%,

# Same assay, conditions: electroporation, 5,000 nM, approximately 24 hours, relative to untreated control cells, gapmers targeting SEQ ID NO: 1 and 2
row,Substance,% inhibition of SMAD7 mRNA expression
1,771707 (antisense eT*eT*eG*eT*eT*d[5mC]*d[5mC]*dT*d[5mC]*dT*dG*d[5mC]*dA*d[5mC]*d[5mC]*e[5mC]*eT*eG*eG*eG) [compound 771707],0%

# Same assay, conditions: electroporation, 15,000 nM antisense oligonucleotide (Study 2), 5-10-5 MOE gapmers targeting SEQ ID NO: 1 and 2
row,Substance,% inhibition of SMAD7 mRNA expression
1,771690 (antisense e[5mC]*e[5mC]*eT*eA*eG*dT*dT*d[5mC]*dG*d[5mC]*dA*dG*dA*dG*dT*e[5mC]*eG*eG*e[5mC]*eT) [compound 771690],43%
2,771696 (antisense e[5mC]*eT*e[5mC]*eT*e[5mC]*d[5mC]*d[5mC]*dA*dG*dG*dA*dG*dG*dG*dT*eA*eT*eG*e[5mC]*eA) [compound 771696],0%
3,771697 (antisense e[5mC]*eA*e[5mC]*eT*e[5mC]*dT*d[5mC]*d[5mC]*d[5mC]*dA*dG*dG*dA*dG*dG*eG*eT*eA*eT*eG) [compound 771697],5%
4,771698 (antisense e[5mC]*eA*e[5mC]*eA*e[5mC]*dT*d[5mC]*dT*d[5mC]*d[5mC]*d[5mC]*dA*dG*dG*dA*eG*eG*eG*eT*eA) [compound 771698],43%
5,771706 (antisense eG*eG*eG*e[5mC]*e[5mC]*dT*dG*dG*dA*d[5mC]*d[5mC]*dA*dA*dA*dT*e[5mC]*e[5mC]*eA*eA*e[5mC]) [compound 771706],22%

# Same assay, conditions: electroporation, 15,000 nM, approximately 24 hours, relative to untreated control cells, gapmers targeting SEQ ID NO: 1 and 2
row,Substance,% inhibition of SMAD7 mRNA expression
1,771669 (antisense eT*eT*eT*e[5mC]*eT*d[5mC]*dT*d[5mC]*dT*d[5mC]*dA*dA*dA*dG*d[5mC]*eA*e[5mC]*eT*eA*e[5mC]) [compound 771669],55%
2,771677 (antisense eT*eT*eT*e[5mC]*eT*dT*dG*dT*dT*dT*dA*dT*dA*d[5mC]*dA*e[5mC]*eA*eT*eT*eG) [compound 771677],21%
3,771685 (antisense e[5mC]*eT*eT*eT*eT*dT*dT*dA*dA*dT*dT*dT*dG*dG*d[5mC]*eA*eT*eT*eT*eG) [compound 771685],17%
4,771693 (antisense eT*e[5mC]*e[5mC]*e[5mC]*eA*dG*dG*dA*dG*dG*dG*dT*dA*dT*dG*e[5mC]*eA*e[5mC]*eA*e[5mC]) [compound 771693],45%
5,771701 (antisense eG*eG*eT*eA*eT*dG*d[5mC]*dA*d[5mC]*dA*d[5mC]*dT*d[5mC]*dT*d[5mC]*e[5mC]*e[5mC]*eA*eG*eG) [compound 771701],34%
